From patent US20060229355A1, “3.3'-Diindolylmethane compositions inhibit angiogenesis” (priority 2005, published 2006)

Key:
CDK2 = test: Western blot of G1 cell cycle components in HUVECs: CDK2; type: cell-based, human; conditions: 25 μM DIM
From the text: (§1) DIM down-regulates CDK2 and CDK6, and up-regulates CDK inhibitor p27^Kip1 in HUVECs. […] To examine this possibility, the expressions of G1 cell cycle components were investigated by Western blot analysis.

HUVECs [1] = test: Cell proliferation assay (HUVEC cell counting); type: cell-based, human
Procedure: Antiangiogenic effects of the DIM analogs are pre-screened with vascular endothelial cells proliferation assays. […] Cells were then treated by 0, 2, 5, 10, or 25 μM DIM candidate at 24, 48, and 72 h. DIM was dissolved in DMSO as 1000× stock solutions for each treatment. Cell numbers were assessed at various time points by trypsinization and counting with a Coulter Z1 cell counter, as described below in Example I below. Cell proliferation assay. To determine endothelial cell proliferation, approximately 8×10^4 HUVECs were seeded in 6-well plates and allowed to grow for 24 h. Cells were then treated by 0, 2, 5, 10, or 25 μM DIM at 24, 48, and 72 h. DIM was dissolved in DMSO as 1000× stock solutions for each treatment. Cell numbers were assessed at various time points by trypsinization and counting with a Coulter Z1 cell counter. DIM inhibits proliferation, invasion, migration and tube formation of HUVECs. […] First, DIM's effect on proliferation of human vascular endothelial cell (HUVECs) was examined. HUVECs were treated with 0, 2, 5, 10, or 25 μM DIM for 24 to 72 h. DIM inhibited HUVECs proliferation in a concentration- and time-dependent manner, with up to 70% inhibition of proliferation at 72 h treatment with 25 μM DIM.

p27^Kip1 = test: Western blot of G1 cell cycle components in HUVECs: p27Kip1; type: cell-based, human; conditions: 25 μM DIM
From the text: as §1

p21^Waf1/CiP1 = test: Western blot of G1 cell cycle components in HUVECs: p21Waf1/Cip1; type: cell-based, human; conditions: DIM treatment
From the text: as §1

HUVECs [2] = test: Cell cycle analysis by flow cytometry; type: cell-based, human; conditions: 24 h
Procedure: DIM induces a G1 cell cycle arrest in HUVECs. To further characterize the antiproliferative activity of DIM in HUVECs, we examined the effects of this indole on cell cycle regulation. For the cell cycle studies, HUVECs treated with vehicle control or 25 μM DIM for 24 h were analyzed by flow cytometry as described above.

HUVECs [3] = test: Tube formation assay on Matrigel; type: cell-based, human; conditions: 24 h pre-treatment, 10 μM DIM, 3-h incubation
Procedure: Tube formation assay. Endothelial cells plated onto a gel of basement membrane protein rapidly organize into multicellular tube-like structures [12; 13]. Twelve-well cell culture plates coated with Matrigel were ordered from BD-Discovery Labware and assay was performed according to the manufacturer's instruction. Briefly, Matrigel-coated 12-well plates were allowed to solidify at 37° C. for 1 h. Endothelial cells pre-treated with 0, 10, or 25 μM DIM for 24 h were trypsinized and 6×10^4 cells were added per well in 1 mL medium. Cell viability was determined by trypan blue exclusion stain before seeding. DIM treatments continued for the rest of the assay. Tube formation was observed periodically over time under a phase contrast microscope, and representative pictures were taken at 3 h and 24 h. In a further assay of angiogenesis, we examined the effect of DIM on HUVEC tube formation in culture. Capillary formation on Matrigel is a process that requires cell-matrix interaction. For the assay, HUVECs were pre-treated without or with 10 or 25 μM of DIM for 24 h and then seeded on a thin layer of Matrigel. Capillary tube structure formation was obvious at 3 h of incubation and was almost completed at 24 h in the control medium.

[4] = Toxicity observations in MCF-7 xenograft study (feed intake, body weight, organ weights); type: in vivo, athymic (nu/nu) mice; conditions: 5 mg/kg s.c. five times weekly
Procedure: (§2) II. Antiangiogenic DIM inhibits human breast carcinoma in xenograft model. Twenty female athymic (nu/nu) mice were acclimated to semi-purified phytoestrogen-free AIN-76 ad libitum for 7 days prior to the study. They were implanted with a 60-d release 0.72 mg estradiol pellet in the subscapular region. Mice were then inoculated s.c. in the bilateral flanks with 0.1 mL Matrigel containing 3×10^6 MCF-7 human breast cancer cells and randomly grouped (10/group) to receive s.c. injections of either 5 mg/kg DIM or DMSO in a PBS vehicle, five times weekly. Feed intake, body weight were measured weekly and palpable tumor diameter were measured twice per week. Tumor volumes were calculated as: (π/6)×[length(mm)×width^2(mm)] [15]. The experiment was terminated at 34 days. All animals were killed by CO2 asphyxiation.
(§3) DIM inhibits the growth of transplanted MCF-7 human breast carcinoma cells. Since we observed an inhibition of in vivo angiogenesis by DIM in the Matrigel plug assay, we determined whether DIM could inhibit the growth of transplanted breast carcinoma cells in female athymic (nu/nu) mice. Mice were injected s.c. with MCF-7 human breast cancer cells in the bilateral flanks. Mice were randomly assigned (10 mice/group) to receive s.c. injection of either DIM at 5 mg/kg dose or vehicle control DMSO in PBS, five times weekly. Feed intake, body weight and palpable tumor diameter were measured twice per week. Feed intake (22.2±1.3 g/wk vs. 22.9±1.0 g/wk) and body weight gain (2.3±0.2 g vs. 2.4±0.2 g) were not altered by DIM administration. […] Tumor volumes were calculated as: (π/6)×[length(mm)×width^2(mm^2)].

[5] = test system: MCF-7 human breast cancer cells; test: MCF-7 human breast carcinoma xenograft in athymic mice; type: in vivo, athymic (nu/nu) mice; conditions: 5 mg/kg s.c. five times weekly
Procedure: as §2, §3

HUVECs [6] = test: Wound migration assay; type: cell-based; conditions: Homo sapiens, HUVEC; 25 μM DIM, 18 h incubation; read-out: number of cells migrating across the wound, % of control
Procedure: Wound migration assay. Migration was assessed using an in vitro wound assay. One hundred thousands cells were seeded into two 12-well cell culture plates and cultured in EGM-MV BulletKit to confluency. A scrape was made in the center of the cell monolayers with a sterile pipette tip to create a gap of constant width. Cellular debris was removed by gently washing with PBS. The initial images of the wounds were captured under phase contrast microscopy and the wounded monolayers were incubated further for 18 h in fresh EGM-MV BulletKit medium in the presence of DMSO or DIM of various concentrations (5, 10, or 25 μM). Pictures were taken with a Nikon Coolpix990 digital camera connected to the Nikon Eclipse TS 100 microscope at a 100× magnification. To quantify the migration, photographs of the initial wounded monolayers were compared with the corresponding images of cells at the end of the incubation. […] Cells that migrated across the lines were counted. All quantification were done on full-size images with the weight of artificial lines negligible compared to the size of the cell body. At least 5 fields from each triplicate treatment were counted. […] To quantify the migration, artificial lines fitting the cutting edges were drawn on pictures of the original wounded cells and overlaid on images of cells after incubation. Cells that migrated across the lines were counted. […]

[7] = test system: neovascularization of Matrigel plugs; test: Matrigel plug angiogenesis assay (hemoglobin content); type: in vivo, C57BL/6 mice; conditions: 5 mg/kg s.c., from five days before Matrigel inoculation and 2 more weeks
Procedure: Matrigel plug angiogenesis assay. In vivo angiogenesis assays were performed on female C57BL/6 mice as described before. Mice were acclimated to semi-purified phytoestrogen-free AIN-76 ad libitum for 7 days prior to the study and randomly grouped (5/group). DMSO vehicle or DIM at 5 mg/kg was injected s.c. five days before Matrigel inoculation. Heparin (64 Unit/mL) and aFGF (100 ng/mL) were gently mixed with cold liquid Matrigel at 4° C. The Matrigel solution (0.3 ml) was injected into mice s.c. in the bilateral flanks. Animals were treated with DMSO control or DIM for 2 more weeks and terminated by CO2 inhalation. The gels were surgically removed and vascularization of Matrigel plugs was quantified by measuring hemoglobin content using Drabkin Reagent kit 525. DIM reduces in vivo angiogenesis. Using a rodent Matrigel plug angiogenesis assay, we next investigated whether DIM affects neovascularization in vivo. Matrigel is a urea extract of Engelbreth-Holm-Swarm (EHS) tumor, which contains laminin, collagen IV, heparan sulfate proteoglycan, and several growth factors, all of which are present in the authentic basement membrane of solid tumors. When injected subcutaneously into rodents, Matrigel forms a solid “plug” beneath the skin. The hemoglobin content in the Matrigel parallels blood vessels development in the gel, thereby allowing quantitation. […]

CDK6 = test: Western blot of G1 cell cycle components in HUVECs: CDK6; type: cell-based, human; conditions: 25 μM DIM
From the text: as §1

CDK4 = test: Western blot of G1 cell cycle components in HUVECs: CDK4; type: cell-based, human; conditions: DIM treatment
From the text: as §1

HUVECs [8] = test: Cell invasion assay (Matrigel-coated transwell Boyden chamber); type: cell-based, human
Procedure: Cell invasion assay. Invasion assays were carried out using modified transwell Boyden chamber system. Chambers were assembled using 8 μm-pore BD Falcon transwell inserts as upper chambers, and the 12-well plates as lower chambers. Cell culture inserts were coated with 10 μl/insert Matrigel. Coated inserts were left to dry overnight in a laminar flow fume hood and then rehydrated with DMEM supplemented with 0.1% BSA for 1 h at 37° C. Rehydrated Matrigel wells were washed with the same medium. HUVECs were harvested by trypsin/EDTA and resuspended in 0.1% BSA/DMEM. Medium containing 5% FBS was applied to the lower chamber as chemoattractant, then cells were seeded at 1.5×10^5 cells/insert in the presence of 0, 5, 10 or 25 μM DIM and incubated for 2 h at 37° C. and 5% CO2. At the end of the incubation, the cells in the upper chamber were removed with cotton swabs and cells that traversed the Matrigel to the lower surface of the insert were fixed with 10% formalin/PBS and stained with crystal violet in 10% formalin/PBS. Cells that migrated to the lower surface of the insert were counted under the light microscope at a magnification of 40×. Each treatment was in triplicate. The quantification of the invasive cells in the presence of DIM was expressed as the percentage of the quantity of invasive cells under control conditions (DMSO). We next conducted a cell invasion assay to examine the effect of DIM on HUVEC movement through a simulated extracellular matrix. In a modified Boyden chamber assay, the transwell inserts were coated with a thin layer of Matrigel and inserted into wells containing 5% FBS medium as a chemoattractant. As a negative control, serum-free medium containing 0.1% BSA was used in the lower chamber wells. Cells which transversed the Matrigel and migrated to the lower part of the insert were photographed and quantified. […] In response to 5% FBS, however, HUVECs traversed the Matrigel and migrated to the lower chamber. The invasion of HUVECs was decreased by DIM in a concentration-dependent manner, in which DIM at 25 μM decreased cell invasion to 52% of the control.

cyclin E = test: Western blot of G1 cell cycle components in HUVECs: cyclin E; type: cell-based, human; conditions: DIM treatment
From the text: as §1

Compound: c1ccc2c(Cc3c[nH]c4ccccc34)c[nH]c2c1 [DIM, 3,3′-Diindolylmethane]
- CDK2 expression, % of the control (CDK2): 35%
- inhibition of proliferation (in words) (HUVECs [1]; 5 μM DIM, 72 h): Significant inhibition of proliferation
- inhibition at 25 µM (HUVECs [1]; Homo sapiens, HUVEC, 25 μM DIM, 72 h treatment): ≤ 70%
- cell survival and viability (trypan blue exclusion) (HUVECs [1]; conditions of the proliferation assay, 0-25 μM, 24-72 h): not obviously affected
- p27Kip1 expression, fold of the control (p27^Kip1): ~3.5 fold
- level of p21Waf1/Cip1 (p21^Waf1/CiP1): not significantly affected
- cell population in G1 phase (in words) (HUVECs [2]; 5 μM DIM, asynchronous growing cells): increased the cell population in G1 phase
- proportion of S phase cells (HUVECs [2]; 25 μM DIM, vehicle control 15.2±1.3): 2.4±0.9%
- proportion of cells in the G1 phase (HUVECs [2]; 25 μM DIM, vehicle control 71.8±2.5%): 85.7±2.9%
- capillary tube structure formation (in words) (HUVECs [3]): decreased ability to extend and differentiate into tube-like structures
- body weight gain [4]: not altered
- feed intake [4]: not altered
- relative organ weights [4]: not significantly affected
- reduction of tumor growth ([5]; after 3 weeks (P=0.22)): 40%
- final average tumor volume ([5]; day 34, control 3121±554.5 mm^3): 1125±434 mm^3
- reduction of tumor growth ([5]; termination at day 34 (P<0.05)): 64%
- activity at 25 µM (HUVECs [6]): 40%
- reduction of neovascularization compared to controls (hemoglobin content) [7]: up to 76%
- CDK6 expression, % of the control (CDK6): 40%
- level of CDK4 (CDK4): not significantly affected
- cell invasion (in words) (HUVECs [8]; 5 μM DIM): trend of decreased cell invasion
- cell invasion (in words) (HUVECs [8]; 10 μM DIM): more significant effect
- cell invasion, % of the control (HUVECs [8]; 25 μM DIM, 5% FBS chemoattractant, 2 h): 52%
- level of cyclin E (cyclin E): not significantly affected
